Bounds are passed on as bounds.

The values below come from ChEMBL document CHEMBL1125139, “Antitumor agents. 113. New 4 beta-arylamino derivatives of 4'-O-demethylepipodophyllotoxin and related compounds as potent inhibitors of human DNA topoisomerase II” (1990).

A short description of assay [1]: Concentration for 50% reduction in cell number after 3-day incubation. It is filed as functional. Conditions: Homo sapiens, 72 h; read-out: ID50 (the source's name).
Assay [2] deals with DNA topoisomerase II (Homo sapiens) (UniProt P11388+Q02880). The experiment in a line: Inhibitory activity against human DNA topoisomerase II. It is filed as protein assay.
Assay [3] deals with Nucleic Acid. The assay is described as follows: Inhibition of cellular protein-DNA complex formation at 10 uM. The class given is functional. To be noted: Homo sapiens.

Turning to `CCOC(=O)c1ccc(N[C@@H]2c3cc4c(cc3[C@@H](c3cc(OC)c(O)c(OC)c3)[C@H]3C(=O)OC[C@@H]32)OCO4)cc1`, the IC50 in assay [1] was determined as 0.84 µM. In assay [2], the ID50 is 5 µM. Further, in assay [3], the Formation is 207%.
On to `COc1cc([C@@H]2c3cc4c(cc3[C@@H](Nc3cc([N+](=O)[O-])ccc3O)[C@H]3COC(=O)[C@H]23)OCO4)cc(OC)c1O`, for which, in assay [1], the IC50 came out at 1 µM. The ID50 in assay [2] is above 100 µM. In assay [3], this molecule gave a Formation of 15%.
In the same order, the values of `COc1cc([C@@H]2c3cc4c(cc3[C@@H](Nc3cccc([N+](=O)[O-])c3)[C@H]3COC(=O)[C@H]23)OCO4)cc(OC)c1O` are 1 µM, 50 µM and 230%.
The corresponding values for `COc1cc([C@@H]2c3cc4c(cc3[C@@H](Nc3cccnc3)[C@H]3COC(=O)[C@H]23)OCO4)cc(OC)c1O` are 0.24 µM, 50 µM and 148%.
The corresponding values for `COc1cc([C@@H]2c3cc4c(cc3[C@@H](Nc3cccc(C#N)c3)[C@H]3COC(=O)[C@H]23)OCO4)cc(OC)c1O` are 0.69 µM, 25 µM and 137%.
On to `COc1cc([C@@H]2c3cc4c(cc3[C@@H](Nc3ccc(N5CCOCC5)cc3)[C@H]3COC(=O)[C@H]23)OCO4)cc(OC)c1O`, for which the IC50 in assay [1] was 0.66 µM. Also, in assay [2], the ID50 was determined as 10 µM. The same molecule showed a Formation in assay [3] of 140%.
In the same order, the values of `COc1cc([C@@H]2c3cc4c(cc3[C@@H](Nc3cc(OC)c(OC)c(OC)c3)[C@H]3COC(=O)[C@H]23)OCO4)cc(OC)c1O` are 0.63 µM, above 100 µM and 47%.
In the same order, the values of `COc1cccc(N[C@@H]2c3cc4c(cc3[C@@H](c3cc(OC)c(O)c(OC)c3)[C@H]3C(=O)OC[C@@H]32)OCO4)c1` are 3.8 µM, 25 µM and 104%.
On to `COc1cc([C@@H]2c3cc4c(cc3[C@@H](Nc3ccc(N)cc3)[C@H]3COC(=O)[C@H]23)OCO4)cc(OC)c1O`, for which the IC50 in assay [1] was 0.8 µM. This molecule also returned an ID50 in assay [2] of 5 µM. Further, the Formation in assay [3] was determined as 330%.
Consider `COc1cc([C@@H]2c3cc4c(cc3[C@@H](Nc3ccc5c(c3)OCO5)[C@H]3COC(=O)[C@H]23)OCO4)cc(OC)c1O`, for which, in assay [1], the IC50 was below 1 µM. The same molecule returned an ID50 in assay [2] of 50 µM. Further, the Formation in assay [3] was 164%.
In the same order, the values of `COc1cc([C@@H]2c3cc4c(cc3[C@@H](Nc3ccc(C#N)cc3)[C@H]3COC(=O)[C@H]23)OCO4)cc(OC)c1O` are 0.64 µM, 10 µM and 211%.
The corresponding values for `COc1cc([C@@H]2c3cc4c(cc3[C@@H](Nc3cccc(N)c3)[C@H]3COC(=O)[C@H]23)OCO4)cc(OC)c1O` are 4 µM, 25 µM and 140%.
The corresponding values for `COC(=O)c1cccc(N[C@@H]2c3cc4c(cc3[C@@H](c3cc(OC)c(O)c(OC)c3)[C@H]3C(=O)OC[C@@H]32)OCO4)c1` are 2.7 µM, 50 µM and 249%.
For the molecule `COc1cc([C@@H]2c3cc4c(cc3[C@@H](Nc3ccccn3)[C@H]3COC(=O)[C@H]23)OCO4)cc(OC)c1O`, in assay [1], the IC50 came out at 0.71 µM. In addition, in assay [2], the ID50 is 50 µM. Moreover, the Formation in assay [3] came to 97%.
The corresponding values for `COc1cc([C@@H]2c3cc4c(cc3[C@@H](Nc3ccc5c(c3)OCCO5)[C@H]3COC(=O)[C@H]23)OCO4)cc(OC)c1O` are 0.68 µM, 10 µM and 279%.
Consider `COc1cc([C@@H]2c3cc4c(cc3[C@@H](Sc3ccc(O)cc3)[C@H]3COC(=O)[C@H]23)OCO4)cc(OC)c1O`, for which the IC50 in assay [1] was below 1 µM. In assay [2], this molecule showed an ID50 above 100 µM. In assay [3], this molecule displayed a Formation of 10%.
In the case of `COC(=O)c1cc(N[C@@H]2c3cc4c(cc3[C@@H](c3cc(OC)c(O)c(OC)c3)[C@H]3C(=O)OC[C@@H]32)OCO4)ccc1O`, in assay [1], the IC50 is 1 µM. This molecule showed an ID50 in assay [2] of 50 µM. The Formation in assay [3] is 83%.
In the same order, the values of `COc1cc([C@@H]2c3cc4c(cc3[C@@H](Nc3cccc(O)c3)[C@H]3COC(=O)[C@H]23)OCO4)cc(OC)c1O` are 0.45 µM, 25 µM and 290%.
In the case of `COc1cc([C@@H]2c3cc4c(cc3[C@@H](Nc3ccc(Oc5ccccc5)cc3)[C@H]3COC(=O)[C@H]23)OCO4)cc(OC)c1O`, the IC50 in assay [1] stood at 1 µM. Also, the ID50 in assay [2] was found to be 25 µM. In assay [3], the Formation stood at 97%.
The corresponding values for `COc1cc([C@@H]2c3cc4c(cc3[C@@H](Nc3cccc(C(C)=O)c3)[C@H]3COC(=O)[C@H]23)OCO4)cc(OC)c1O` are 1.7 µM, 50 µM and 150%.
In the same order, the values of `COc1cc([C@@H]2c3cc4c(cc3[C@@H](Oc3ccc(O)cc3)[C@H]3COC(=O)[C@H]23)OCO4)cc(OC)c1O` are below 1 µM, 50 µM and 34%.
For `COc1cc([C@@H]2c3cc4c(cc3[C@@H](Nc3cc(C(F)(F)F)cc(C(F)(F)F)c3)[C@H]3COC(=O)[C@H]23)OCO4)cc(OC)c1O`, in assay [1], the IC50 came out at 3.4 µM. Also, the ID50 in assay [2] is above 100 µM. This molecule returned a Formation in assay [3] of 21%.
For the molecule `COc1cc([C@@H]2c3cc4c(cc3[C@@H](O[C@@H]3O[C@@H]5CO[C@@H](C)O[C@H]5[C@H](O)[C@H]3O)[C@H]3COC(=O)[C@H]23)OCO4)cc(OC)c1O` [ETOPOSIDE], the IC50 in assay [1] is 0.2 µM. The molecule also yielded a Formation in assay [3] of 100%.
Consider `COC(=O)c1cc(N[C@@H]2c3cc4c(cc3[C@@H](c3cc(OC)c(O)c(OC)c3)[C@H]3C(=O)OC[C@@H]32)OCO4)cc(C(=O)OC)c1`, for which, in assay [1], the IC50 was below 1 µM. This molecule displayed an ID50 in assay [2] of 25 µM. In assay [3], this molecule had a Formation of 50%.
With `COc1cc([C@@H]2c3cc4c(cc3[C@@H](Nc3cc(N)ccc3O)[C@H]3COC(=O)[C@H]23)OCO4)cc(OC)c1O`, in assay [1], the IC50 amounted to 3.3 µM. Besides, the ID50 in assay [2] was above 100 µM. The molecule further returned a Formation in assay [3] of 11%.
The corresponding values for `COc1cc([C@@H]2c3cc4c(cc3[C@@H](Nc3cccc(CO)c3)[C@H]3COC(=O)[C@H]23)OCO4)cc(OC)c1O` are below 1 µM, 25 µM and 235%.
Consider `COc1cc([C@@H]2c3cc4c(cc3[C@@H](NCCO)[C@H]3COC(=O)[C@H]23)OCO4)cc(OC)c1O`, for which the IC50 in assay [1] was determined as 1.6 µM. In assay [3], this molecule yielded a Formation of 121%.
For `CCOC(=O)c1ccccc1N[C@@H]1c2cc3c(cc2[C@@H](c2cc(OC)c(O)c(OC)c2)[C@H]2C(=O)OC[C@@H]21)OCO3`, in assay [1], the IC50 amounted to 1 µM. Further, the ID50 in assay [2] was above 100 µM. In assay [3], this molecule displayed a Formation of 4%.
Take `COc1cc([C@@H]2c3cc4c(cc3[C@@H](Nc3ccc([N+](=O)[O-])cc3)[C@H]3COC(=O)[C@H]23)OCO4)cc(OC)c1O`: in assay [1], the IC50 is 0.49 µM. In assay [2], this molecule displayed an ID50 of 10 µM. Moreover, the Formation in assay [3] is 323%.
In the same order, the values of `COC(=O)c1ccc(N[C@@H]2c3cc4c(cc3[C@@H](c3cc(OC)c(O)c(OC)c3)[C@H]3C(=O)OC[C@@H]32)OCO4)cc1O` are 5.8 µM, 50 µM and 129%.
For the molecule `COc1cc([C@@H]2c3cc4c(cc3[C@@H](Nc3cnc5ccccc5c3)[C@H]3COC(=O)[C@H]23)OCO4)cc(OC)c1O`, in assay [1], the IC50 was below 1 µM. Also, the ID50 in assay [2] worked out at 50 µM. This molecule registered a Formation in assay [3] of 123%.
The corresponding values for `COc1cc([C@@H]2c3cc4c(cc3[C@@H](Nc3ccccc3)[C@H]3COC(=O)[C@H]23)OCO4)cc(OC)c1O` are 0.71 µM, 25 µM and 243%.
Turning to `COc1cc([C@@H]2c3cc4c(cc3[C@@H](Nc3ccc(F)cc3)[C@H]3COC(=O)[C@H]23)OCO4)cc(OC)c1O`, the IC50 in assay [1] amounted to 0.24 µM. For the same molecule, the ID50 in assay [2] stood at 5 µM. Also, in assay [3], the Formation amounted to 213%.
In the same order, the values of `COc1cc([C@@H]2c3cc4c(cc3[C@@H](Oc3ccc(F)cc3)[C@H]3COC(=O)[C@H]23)OCO4)cc(OC)c1O` are 0.5 µM, above 100 µM and 57%.
In the same order, the values of `COc1ccc(N[C@@H]2c3cc4c(cc3[C@@H](c3cc(OC)c(O)c(OC)c3)[C@H]3C(=O)OC[C@@H]32)OCO4)cc1OC` are below 1 µM, 25 µM and 180%.
